This note sets out measurements from ChEMBL document CHEMBL1914447, “Novel orally active antimalarial thiazoles” (J Med Chem, 2011).

SMILES strings stand for the structures. Values after ≈ are worked out from the molar mass of the structure shown. Where only a bound is given, the exact number is not on record here.

The test system of data set [1] is Liver microsomes. The data set can be described thus: Metabolic stability in human liver microsomes at 1 uM by LC-MS analysis. The data set is classed as ADME, Microsome. For orientation: Microsomes from liver hold many membrane-bound enzymes, among them those of drug oxidation.
The subject of data set [2] is Liver microsomes. Put plainly: Metabolic stability in rat liver microsomes at 1 uM by LC-MS analysis. The data set is classed as ADME, Microsome.
Data set [3] concerns Liver. Put plainly: Metabolic stability in mouse liver microsomes at 1 uM by LC-MS analysis. Type of data set: ADME, Microsome.
Data set [4] is described as follows: Lipophilicity, log D of the compound by gradient HPLC at pH 3.0. Type of data set: physicochemical. Conditions: buffer.
Data set [5] in a line: Lipophilicity, log D of the compound by gradient HPLC at pH 7.4. Type of data set: physicochemical. Conditions: buffer.
Data set [6] can be described thus: Kinetic solubility of the compound by nephelometry at pH 2.0. Type of data set: physicochemical. Conditions: buffer, read-out: Kinetic_solubility.
Data set [7] can be described thus: Kinetic solubility of the compound by nephelometry at pH 6.5. Conditions: buffer, read-out: Kinetic_solubility. The data set is classed as physicochemical.
Data set [8] has as its system Plasmodium falciparum. Put plainly: microbe, parasite or virus in culture. Conditions: K1.
Data set [9] deals with Plasmodium falciparum. The data set can be described thus: microbe, parasite or virus in culture. Conditions: NF54.

For orientation: chromatographic logD means a lipophilicity value derived from retention on a column. A lower chromatographic logD goes with a more hydrophilic compound. A word on the IC50: it is the concentration that gives 50% inhibition.

For the molecule `CC(C)(C)c1cc(C(=O)Nc2nc(CNS(C)(=O)=O)cs2)n(Cc2ccccc2)n1`, the Stability result in data set [1], in data set [2] and in data set [3] was “Unstable” each time. The chromatographic logD in data set [4] and in [5] was 3.7 throughout. Further, the solubility kinetic in data set [6] and in data set [7] was 3.1 µg/mL (≈ 6.93 µM) each time. The figures for the IC50 in data set [8] and in data set [9] were 2.93 µM and 4.68 µM, respectively.

With `CNCc1csc(NC(=O)c2cc(C(C)(C)C)nn2Cc2ccccc2)n1`, the Stability entry in data set [1], in data set [2] and in data set [3] was “Stable” throughout. For the same molecule, the results for the chromatographic logD in data set [4] and in [5] were 2.6 and 3.8, respectively. For the same molecule, the values for the solubility kinetic in [6] and in data set [7] were 25 µg/mL (≈ 65.2 µM) and 12.5 µg/mL (≈ 32.6 µM), respectively. In addition, the results for the IC50 in data set [8] and in data set [9] were 0.19 µM and 0.16 µM, respectively.

For `C[C@H]1[C@H](OC(=O)CCC(=O)O)O[C@@H]2O[C@@]3(C)CC[C@H]4[C@H](C)CC[C@@H]1[C@@]24OO3` [ARTESUNATE], the IC50 was found to be 0.003 µM in data set [8] and 0.004 µM in [9].

With `Cc1csc(NC(=O)c2cc(C(C)(C)C)nn2Cc2ccccc2)n1`, the Stability entry in data set [1], in [2] and in data set [3] was “Unstable” throughout. Besides, the chromatographic logD in data set [4] and in [5] was 4.7 in each case. In addition, the solubility kinetic in [6] and in data set [7] was less than 1.6 µg/mL in each case. Also, the IC50 amounted to 4.94 µM in data set [8] and 4.12 µM in [9].

Consider `NCc1csc(NC(=O)c2ccccn2)n1`, for which the chromatographic logD in data set [4] amounted to 0.3; in data set [5] it was 0.7. The solubility kinetic in [6] and in [7] was more than 100 µg/mL throughout. Also, the IC50 in data set [8] and in data set [9] was more than 42.7 µM in each case.

As to `NCc1csc(NC(=O)c2ccccc2)n1`, the figures for the chromatographic logD in data set [4] and in [5] were 0.7 and 1, respectively. Also, the solubility kinetic was more than 100 µg/mL in data set [6] and 25 µg/mL (≈ 107 µM) in [7]. Besides, the IC50 in [8] is 42.9 µM; in [9] it was more than 42.9 µM.

For `NCc1csc(NC(=O)c2cc3ccccc3n2Cc2ccccc2)n1`, the chromatographic logD in data set [4] was 2.4; in data set [5] it was 3. In addition, the solubility kinetic stood at 25 µg/mL (≈ 69 µM) in [6] and 1.6 µg/mL (≈ 4.41 µM) in data set [7]. Moreover, the IC50 in [8] came to 6.98 µM; in data set [9], 10.3 µM.

On to `CC(C)(C)c1cc(C(=O)Nc2cccc(CN)c2)n(Cc2ccccc2)n1`, for which the Stability entry in data set [1], in [2] and in data set [3] was “Stable” each time. Also, the chromatographic logD in data set [4] came to 2.2; in [5], 2.9. In addition, the values for the solubility kinetic in [6] and in data set [7] were more than 100 µg/mL and 25 µg/mL (≈ 69 µM), respectively. Moreover, the IC50 is 1.47 µM in data set [8] and 2.15 µM in data set [9].

On to `CC(C)(C)c1cc(C(=O)Nc2ccccn2)n(Cc2ccccc2)n1`, for which the Stability result in data set [1], in [2] and in data set [3] was “Unstable” each time. Also, the chromatographic logD in data set [4] and in data set [5] was 4.5 each time. Also, the solubility kinetic in data set [6] is 25 µg/mL (≈ 74.8 µM); in data set [7], 6.3 µg/mL (≈ 18.8 µM). The IC50 in data set [8] stood at 10.2 µM; in data set [9], 10.5 µM.

Consider `Cn1nc(C(C)(C)C)cc1C(=O)Nc1nc(CN)cs1`, for which the chromatographic logD in data set [4] was 1.2; in data set [5], 1.6. Besides, the solubility kinetic in [6] is more than 100 µg/mL; in data set [7], 50 µg/mL (≈ 170 µM). Also, the figures for the IC50 in data set [8] and in data set [9] were 34.1 µM and more than 34.1 µM, respectively.

With `NCc1csc(NC(=O)c2ccn[nH]2)n1`, the chromatographic logD in data set [4] is 0; in data set [5] it was 0.1. Also, the solubility kinetic in data set [6] and in data set [7] was more than 100 µg/mL in each case. In addition, the IC50 in data set [8] and in data set [9] was more than 44.8 µM throughout.

Regarding `NCc1csc(NC(=O)c2ncccn2)n1`, the values for the chromatographic logD in [4] and in data set [5] were -0.2 and -0.1, respectively. Moreover, the solubility kinetic in data set [6] and in data set [7] was more than 100 µg/mL each time. Further, the IC50 in data set [8] and in data set [9] was more than 42.5 µM in each case.

With `NCc1csc(NC(=O)c2cccnn2)n1`, the results for the chromatographic logD in data set [4] and in data set [5] were 0 and 0.2, respectively. Also, the solubility kinetic in data set [6] was more than 100 µg/mL; in data set [7], 50 µg/mL (≈ 213 µM). Further, the IC50 in [8] is 42.5 µM; in data set [9], more than 42.5 µM.

Regarding `NCc1csc(NC(=O)c2cnn[nH]2)n1`, the chromatographic logD was -0.2 in data set [4] and -0.3 in data set [5]. Also, the solubility kinetic in data set [6] and in [7] was more than 100 µg/mL in each case. Moreover, the IC50 in [8] and in [9] was more than 44.6 µM each time.

With `NCc1csc(NC(=O)c2cc3ccccc3[nH]2)n1`, the results for the chromatographic logD in [4] and in data set [5] were 1.1 and 1.4, respectively. For the same molecule, the solubility kinetic in data set [6] was more than 100 µg/mL; in data set [7] it was 25 µg/mL (≈ 91.8 µM). Moreover, the IC50 is 22.2 µM in [8] and 30.4 µM in [9].

Consider `NCc1csc(NC(=O)c2ccon2)n1`, for which the chromatographic logD in data set [4] was 0; in data set [5] it was -0.1. For the same molecule, the solubility kinetic in data set [6] and in [7] was 50 µg/mL (≈ 223 µM) throughout. The IC50 in data set [8] and in data set [9] was more than 44.6 µM in each case.

On to `COc1ccc(C(=O)Nc2nc(CN)cs2)cc1`, for which the chromatographic logD in data set [4] is 0.9; in [5] it was 1.2. Further, the values for the solubility kinetic in data set [6] and in [7] were 50 µg/mL (≈ 190 µM) and 25 µg/mL (≈ 94.9 µM), respectively. The IC50 turned out to be 11.1 µM in [8] and 13.1 µM in [9].

Turning to `NCc1csc(NC(=O)c2cn(Cc3ccccc3)nn2)n1`, the chromatographic logD in data set [4] was determined as 1.1; in data set [5] it was 1.4. Also, the solubility kinetic in data set [6] came out at 50 µg/mL (≈ 159 µM); in data set [7], 25 µg/mL (≈ 79.5 µM). Besides, the IC50 in [8] and in data set [9] was more than 3.18 µM each time.

Consider `NCc1csc(NC(=O)c2cnnn2Cc2ccccc2)n1`, for which the chromatographic logD in [4] was found to be 1.3; in data set [5], 1.6. The results for the solubility kinetic in [6] and in data set [7] were more than 100 µg/mL and 50 µg/mL (≈ 159 µM), respectively. For the same molecule, the IC50 in data set [8] and in data set [9] was more than 3.18 µM throughout.

Turning to `NCc1csc(NC(=O)c2ccc(Cl)cc2)n1`, the chromatographic logD in [4] was determined as 1.2; in [5], 1.6. In addition, the values for the solubility kinetic in [6] and in [7] were more than 100 µg/mL and 25 µg/mL (≈ 93.4 µM), respectively. Further, the concentration for half-maximal inhibition (IC50) in [8] is 37.5 µM; in [9], more than 37.5 µM.

In the case of `NCc1csc(NC(=O)c2cc3ccccc3o2)n1`, the figures for the chromatographic logD in data set [4] and in data set [5] were 1.1 and 1.5, respectively. Also, the solubility kinetic is more than 100 µg/mL in data set [6] and 50 µg/mL (≈ 183 µM) in data set [7]. The figures for the IC50 in data set [8] and in [9] were 36.6 µM and more than 36.6 µM, respectively.
